The values below come from US9011826B2, “Cosmetic and dermatological formulations including isononyl benzoate” (Evonik Degussa GmbH, priority 2007, dated 2015).

For data set [1] the following is noted: known solvents (lipids) for this UV-B filter; cited from earlier work.
The nature of data set [2]: Dissolving power for crystalline UV light protection filters. Format: physicochemical. Particulars: 22° C., percent by weight; for Dissolving power (maximum dissolved amount of UV filter) BP-3: Benzophenone-3 dissolved in the product; for Dissolving power (maximum dissolved amount of UV filter) BEMT: Bis-ethylhexyloxyphenol Methoxyphenyl Triazine dissolved in the product; for Dissolving power (maximum dissolved amount of UV filter) BMDM: Butyl Methoxydibenzoylmethane dissolved in the product; for Dissolving power (maximum dissolved amount of UV filter) EHT: Octyl Triazone dissolved in the product. The text has this:
Four representative UV-A or UV-B light protection filters were chosen as representatives for testing the dissolving power for crystalline UV light protection filters in isononyl benzoate (Vestinol® INB, Evonik Oxeno GmbH). These were Benzophenone-3 (2-hydroxy-4-methoxy-benzophenone, BP-3), Butyl Methoxydibenzoylmethane (BMDM), Octyl Triazone (2,4,6-trianilino-p-(carbo-2′-ethylhexyl-1′-oxy)-1,3,5-triazine, EHT) and bemotrizinol (Bis-ethylhexyloxyphenol Methoxyphenyl Triazine, BEMT).
For determination of the dissolving power for these […] UV light protection filters, in each case a particular amount (50 g) of one of the compounds according to the invention was initially introduced into the dissolving vessel and temperature-controlled at 22° C. 1 percent by weight of a UV light protection filter was then added and the mixture was stirred until this amount had dissolved completely and homogeneously. This operation was repeated until the maximum amount of the UV light protection filter which can be dissolved had been exceeded. For complete dissolving, a relatively long stirring time of several hours was often necessary at higher concentrations.
Once the maximum concentration had been roughly determined in this manner, the test was repeated with smaller weights of the UV light protection filter for fine determination of the concentration range around this maximum concentration.
The compound Tegosoft® TN (C12-15 Alkyl Benzoate) was used as a reference.

As to `CCCCC(CC)COC(=O)c1ccc(Nc2nc(Nc3ccc(C(=O)OCC(CC)CCCC)cc3)nc(Nc3ccc(C(=O)OCC(CC)CCCC)cc3)n2)cc1` (stereo not drawn) [UVINUL™ T 150, 4,4′,4″-(1,3,5-Triazine-2,4,6-triyltriimino)-tris-benzoic acid tris(2-ethylhexyl ester)], in data set [1], the “Maximum amount of the filter dissolved by known solvents” value was “approx. 15 wt. %”.

Regarding “C12-15 Alkyl Benzoate [Tegosoft ® TN, reference compound]”, in data set [2], the “Dissolving power (maximum dissolved amount of UV filter) BP-3” value is 15%, the “Dissolving power (maximum dissolved amount of UV filter) BEMT” value is recorded as 9%, the “Dissolving power (maximum dissolved amount of UV filter) BMDM” value is 13% and the “Dissolving power (maximum dissolved amount of UV filter) EHT” value was 4%.

`CC(C)CCCCCCOC(=O)c1ccccc1` [Isononyl Benzoate, isononyl benzoate]: in data set [2], the “Dissolving power (maximum dissolved amount of UV filter) BP-3” value is reported as 21%, the “Dissolving power (maximum dissolved amount of UV filter) BEMT” value is 12%, the “Dissolving power (maximum dissolved amount of UV filter) BMDM” value is recorded as 14% and the “Dissolving power (maximum dissolved amount of UV filter) EHT” value is recorded as 6%.
